Measurements taken from US8076302B2, “Pyrimidine nucleoside derivatives and salts thereof” (aRigen Pharmaceuticals, Inc., priority 2007, dated 2011).
Structures can show the parent of a compound that is named as a salt. Where two headings read alike, the source gives them in different places.

What was measured:
HSV-1 infection in mice = conditions: compared with acyclovir; Non-patent Document 1; cited from earlier work
uninfected cells = conditions: cited from earlier work
HSV-1 = assay: In vitro antiviral test, 50% plaque formation inhibition, anti-HSV-1 activity; format: cell-based, herpes simplex virus type 1 (HSV-1)
Protocol: (§1) The compounds of the present invention were measured for their in vitro antiviral activity (anti-HSV-1 activity, anti-VZV activity) by using human fetal lung-derived cells in an assay for 50% plaque formation inhibition (Japanese Journal of Chemotherapy, Vol. 38, No. 3, 256-261, 1990).

VZV = assay: In vitro antiviral test, 50% plaque formation inhibition, anti-VZV activity; format: cell-based, varicella-zoster virus (VZV)
Protocol: as §1

[1] = system: HSV-1 infection in mouse skin; assay: In vivo antiviral test, HSV-1 mouse skin infection model (creams); conditions: HSV-1-infected mice, cream; for Incidence rate: affected/total animals
Protocol: Creams were prepared for the compounds of the present invention according to Formulation Example 2 and tested for their therapeutic effect on HSV-1 infection in mouse skin. Moreover, skin symptoms in the HSV-1-infected mice were scored (Antiviral Research, 17, 133-143, 1992), and the time course of changes in their average lesion scores is shown in FIG. 1.
According to the ratio indicated above, creams were prepared in a routine manner and provided for Pharmacological Test Example 2.

[2] = system: herpes simplex virus type 1 (HSV-1) and varicella-zoster virus (VZV); conditions: Patent Document 1; cited from earlier work
[3] = Human alphaherpesvirus 1, read-out: Anti-HSV-1 activity (ED50)
[4] = Human alphaherpesvirus 3, read-out: Anti-VZV activity (ED50)
[5] = Human alphaherpesvirus 1, effective concentration required to reduce the number of plaques to 50%, human fetal lung-derived cells, read-out: Anti-HSV-1 activity (ED50)
[6] = Human alphaherpesvirus 3, 50% plaque formation inhibition, human fetal lung-derived cells, read-out: Anti-VZV activity (ED50)

O=c1[nH]c(=O)n([C@@H]2O[C@H](CO)[C@@H](O)[C@@H]2O)cc1/C=C/Br [Sorivudine, 1-β-D-arabinofuranosyl-(E)-5-(2-bromovinyl)uracil]
Usefulness as external formulation for HSV-1 infection in mice (HSV-1 infection in mice): as useful as acyclovir | Cytotoxicity (uninfected cells): extremely low

O=C(OCC1OC(n2cc(/C=C/Cl)c(=O)[nH]c2=O)C(O)C1O)C1CCNCC1 [Compound 1, (E)-5-(2-chlorovinyl)-1-[5′-O-(piperidine-4-carboxyl)-β-D-arabinofuranosyl]uracil hydrochloride]
EC50 (HSV-1; [3]): 400 nM | EC50 (VZV; [4]): 46 nM | Incidence rate ([1]; hydrochloride): 4/8

O=C(OCC1OC(n2cc(/C=C/Cl)c(=O)[nH]c2=O)C(O)C1O)c1cccnc1 [Compound 3, (E)-5-(2-chlorovinyl)-1-[5′-O-(pyridine-3-carboxyl)-β-D-arabinofuranosyl]uracil hydrochloride]
EC50 (HSV-1; [5]): 490 nM | EC50 (VZV; [6]): 52 nM

CN1CCC(C(=O)OCC2OC(n3cc(/C=C/Cl)c(=O)[nH]c3=O)C(O)C2O)CC1 [Compound 5, (E)-5-(2-chlorovinyl)-1-[5′-O—(N-methylpiperidine-4-carboxyl)-β-D-arabinofuranosyl]uracil hydrochloride]
EC50 (HSV-1; [5]): 560 nM | EC50 (VZV; [6]): 47 nM

O=C(OCC1OC(n2cc(/C=C/Cl)c(=O)[nH]c2=O)C(O)C1O)c1ccncc1 [Compound 4, (E)-5-(2-chlorovinyl)-1-[5′-O-(pyridine-4-carboxyl)-β-D-arabinofuranosyl]uracil hydrochloride]
EC50 (HSV-1; [5]): 130 nM | EC50 (VZV; [6]): 21 nM

O=c1[nH]c(=O)n([C@@H]2O[C@H](CO)[C@@H](O)[C@@H]2O)cc1/C=C/Cl [CVAU, 1-β-D-arabinofuranosyl-(E)-5-(2-chlorovinyl)uracil, reference compound]
EC50 (HSV-1; [5]): 75 nM | EC50 (VZV; [6]): 8.9 nM | Incidence rate [1]: 6/8 | Survival rate ([1]; survivors/total animals, chi-square test vs control): 7/8 P < 0.01 | Activity compared with sorivudine [2]: the same activity as sorivudine

CC(C)C(N)C(=O)OCC1OC(n2cc(/C=C/Cl)c(=O)[nH]c2=O)C(O)C1O [Compound 2, 1-[5′-0-(L-valine)-β-D-arabinofuranosyl]-(E)-5-(2-chlorovinyl)uracil hydrochloride]
EC50 (HSV-1; [3]): 120 nM | EC50 (VZV; [4]): 19 nM | Incidence rate [1]: 8/8
